In ChEMBL document CHEMBL4808189, “The combination of sesamol and clofibric acid moieties leads to a novel potent hypolipidemic agent with antioxidant, anti-inflammatory and hepatoprotective activity” (Bioorg Med Chem Lett, 2021):
The source made the active and inactive calls. The calls are words filed in the database; no cut-off is given here.

Key:
[1] = Hepatotoxicity in Kunming mouse assessed as induction of oxidative stress by measuring increase in plasma MDA level at 412 mg/kg, ig for 1 month; format: toxicity, organism-based; conditions: in vivo, po, 730 h, time 1 months
Mus musculus [2] = test: Upregulation of HO-1 protein expression in Kunming mouse liver at 412 mg/kg, ig for 1 month by western blot analysis; format: functional, organism-based; conditions: time 1.0 months
[3] = Hepatotoxicity in Kunming mouse assessed as induction of inflammatory response by measuring upregulation of TNF-alpha level in liver at 412 mg/kg, ig for 1 month by western blot analysis; format: toxicity, organism-based; conditions: in vivo, po, 730 h, time 1 months
Mus musculus [4] = test: Hypolipidemic activity in TritonWR1339-induced hyperlipidemic Kunming mouse model assessed as reduction in plasma TG level at 0.362 mmol/kg, ig administered for 7 days; format: functional; conditions: po, 168 h, time 7 day
[5] = Hepatotoxicity in Kunming mouse assessed as increase in plasma alkaline phosphatase level at 412 mg/kg, ig for 1 month; format: toxicity, organism-based; conditions: in vivo, po, 730 h, time 1 months
[6] = Upregulation of p-NF-kB-p65 protein expression in Kunming mouse liver at 412 mg/kg, ig for 1 month by western blot analysis; format: ADME, organism-based; conditions: in vivo, po, 730 h, time 1 months
[7] = Hepatotoxicity in Kunming mouse assessed as increase in liver coefficient at 412 mg/kg, ig for 1 month; format: toxicity, organism-based; conditions: in vivo, po, 730 h, time 1 months
[8] = Hepatotoxicity in Kunming mouse assessed as increase in plasma aspartate transaminase level at 412 mg/kg, ig for 1 month; format: toxicity, organism-based; conditions: in vivo, po, 730 h, time 1 months
[9] = Hepatotoxicity in Kunming mouse assessed as induction of oxidative stress by measuring decrease in plasma CAT level at 412 mg/kg, ig for 1 month; format: toxicity, organism-based; conditions: in vivo, po, 730 h, time 1 months
[10] = Hepatotoxicity in Kunming mouse assessed as hepatocyte swelling at 412 mg/kg, ig for 1 month by H and E staining based analysis; format: toxicity, organism-based; conditions: in vivo, po, 730 h, time 1 months
[11] = Hepatotoxicity in Kunming mouse assessed as increase in plasma total protein level at 412 mg/kg, ig for 1 month; format: toxicity, organism-based; conditions: in vivo, po, 730 h, time 1 months
[12] = Acute toxicity in Kunming mouse assessed as change in body weight at 412 mg/kg, ig for 1 month; format: organism-based; conditions: in vivo, po, 730 h, time 1 months
Mus musculus [13] = test: Hypolipidemic activity in TritonWR1339-induced hyperlipidemic Kunming mouse model assessed as reduction in plasma TC level at 0.362 mmol/kg, ig administered for 7 days; format: functional; conditions: po, 168 h, time 7 day
[14] = Hepatotoxicity in Kunming mouse assessed as increase in plasma alanine aminotransferase level at 412 mg/kg, ig for 1 month; format: toxicity, organism-based; conditions: in vivo, po, 730 h, time 1 months
[15] = Hepatotoxicity in Kunming mouse assessed as cell infiltration in central vein and inflammatory cell infiltration at 412 mg/kg, ig for 1 month by H and E staining based analysis; format: toxicity, organism-based; conditions: in vivo, po, 730 h, time 1 months
Mus musculus [16] = test: Upregulation of Nrf2 protein expression in Kunming mouse liver nucleus at 412 mg/kg, ig for 1 month by western blot analysis; format: functional, organism-based; conditions: time 1.0 months
[17] = Hepatotoxicity in Kunming mouse assessed as induction of oxidative stress by measuring decrease in plasma GSH level at 412 mg/kg, ig for 1 month; format: toxicity, organism-based; conditions: in vivo, po, 730 h, time 1 months
[18] = Hepatotoxicity in Kunming mouse assessed as induction of inflammatory response by measuring upregulation of IL-6 level in liver at 412 mg/kg, ig for 1 month by western blot analysis; format: toxicity, organism-based; conditions: in vivo, po, 730 h, time 1 months
[19] = Hepatotoxicity in Kunming mouse assessed as increase in hepatic weight at 412 mg/kg, ig for 1 month; format: toxicity, organism-based; conditions: in vivo, po, 730 h, time 1 months
[20] = Hepatotoxicity in Kunming mouse assessed as induction of oxidative stress by measuring decrease in plasma superoxide dismutase level at 412 mg/kg, ig for 1 month; format: toxicity, organism-based; conditions: in vivo, po, 730 h, time 1 months
[21] = Hepatotoxicity in Kunming mouse assessed as induction of oxidative stress by measuring decrease in plasma CAT level at 300 mg/kg, ig for 1 month; format: toxicity, organism-based; conditions: in vivo, po, 730 h, time 1 months
Mus musculus [22] = test: Upregulation of HO-1 protein expression in Kunming mouse liver at 300 mg/kg, ig for 1 month by western blot analysis; format: functional, organism-based; conditions: time 1.0 months
[23] = Hepatotoxicity in Kunming mouse assessed as induction of inflammatory response by measuring upregulation of IL-6 level in liver at 300 mg/kg, ig for 1 month by western blot analysis; format: toxicity, organism-based; conditions: in vivo, po, 730 h, time 1 months
Mus musculus [24] = test: Upregulation of Nrf2 protein expression in Kunming mouse liver nucleus at 300 mg/kg, ig for 1 month by western blot analysis; format: functional, organism-based; conditions: time 1.0 months
[25] = Hepatotoxicity in Kunming mouse assessed as increase in hepatic weight at 300 mg/kg, ig for 1 month; format: toxicity, organism-based; conditions: in vivo, po, 730 h, time 1 months
[26] = Upregulation of p-NF-kB-p65 protein expression in Kunming mouse liver at 300 mg/kg, ig for 1 month by western blot analysis; format: ADME, organism-based; conditions: in vivo, po, 730 h, time 1 months
[27] = Hepatotoxicity in Kunming mouse assessed as increase in plasma total protein level at 300 mg/kg, ig for 1 month; format: toxicity, organism-based; conditions: in vivo, po, 730 h, time 1 months
[28] = Hepatotoxicity in Kunming mouse assessed as increase in plasma alkaline phosphatase level at 300 mg/kg, ig for 1 month; format: toxicity, organism-based; conditions: in vivo, po, 730 h, time 1 months
[29] = Hepatotoxicity in Kunming mouse assessed as induction of oxidative stress by measuring increase in plasma MDA level at 300 mg/kg, ig for 1 month; format: toxicity, organism-based; conditions: in vivo, po, 730 h, time 1 months
[30] = Hepatotoxicity in Kunming mouse assessed as increase in plasma aspartate transaminase level at 300 mg/kg, ig for 1 month; format: toxicity, organism-based; conditions: in vivo, po, 730 h, time 1 months
[31] = Hepatotoxicity in Kunming mouse assessed as increase in liver coefficient at 300 mg/kg, ig for 1 month; format: toxicity, organism-based; conditions: in vivo, po, 730 h, time 1 months
[32] = Hepatotoxicity in Kunming mouse assessed as large areas of hepatocyte swelling, necrosis, loose cytoplasm, nuclear degeneration and dissolution at 300 mg/kg, ig for 1 month by H and E staining based analysis; format: toxicity, organism-based; conditions: in vivo, po, 730 h, time 1 months
[33] = Hepatotoxicity in Kunming mouse assessed as induction of inflammatory response by measuring upregulation of TNF-alpha level in liver at 300 mg/kg, ig for 1 month by western blot analysis; format: toxicity, organism-based; conditions: in vivo, po, 730 h, time 1 months
[34] = Hepatotoxicity in Kunming mouse assessed as increase in plasma alanine aminotransferase level at 300 mg/kg, ig for 1 month; format: toxicity, organism-based; conditions: in vivo, po, 730 h, time 1 months
[35] = Acute toxicity in Kunming mouse assessed as change in body weight at 300 mg/kg, ig for 1 month; format: organism-based; conditions: in vivo, po, 730 h, time 1 months
[36] = Hepatotoxicity in Kunming mouse assessed as induction of oxidative stress by measuring decrease in plasma GSH level at 300 mg/kg, ig for 1 month; format: toxicity, organism-based; conditions: in vivo, po, 730 h, time 1 months
[37] = Hepatotoxicity in Kunming mouse assessed as induction of oxidative stress by measuring decrease in plasma superoxide dismutase level at 300 mg/kg, ig for 1 month; format: toxicity, organism-based; conditions: in vivo, po, 730 h, time 1 months
[38] = Hepatotoxicity in Kunming mouse assessed as cell infiltration in central vein and inflammatory cell infiltration at 300 mg/kg, ig for 1 month by H and E staining based analysis; format: toxicity, organism-based; conditions: in vivo, po, 730 h, time 1 months

With `CC(C)(Oc1ccc(Cl)cc1)C(=O)Oc1ccc2c(c1)OCO2` the Activity [1] was “Non-Toxic”, the Activity (Mus musculus [2]) was “Active” and the Activity [3] was “Non-Toxic”. The inhibition in vivo at 362 µmol/kg (Mus musculus [4]) was 38.6%, the Activity [5] was “Non-Toxic” and the Activity [6] was “Non-Toxic”. The Activity [7] was “Non-Toxic”, the Activity [8] was “Non-Toxic” and the Activity [9] was “Non-Toxic”. For the same molecule, the Activity [10] was “Toxic”, the Activity [11] was “Non-Toxic” and the Activity [12] was “Non-Toxic”. The inhibition in vivo at 362 µmol/kg (Mus musculus [13]) was 35.1%, the Activity [14] was “Non-Toxic” and the Activity [15] was “Non-Toxic”. The Activity (Mus musculus [16]) was “Active”, the Activity [17] was “Toxic” and the Activity [18] was “Non-Toxic”. For the same molecule, the Activity [19] was “Non-Toxic” and the Activity [20] was “Non-Toxic”.

For `CCOC(=O)C(C)(C)Oc1ccc(Cl)cc1` [CLOFIBRATE], the inhibition in vivo at 362 µmol/kg (Mus musculus [4]) was 25.5%, the Activity [21] was “Toxic” and the Activity (Mus musculus [22]) was “inactive”. The Activity [23] was “Toxic”, the Activity (Mus musculus [24]) was “inactive” and the Activity [25] was “Toxic”. For the same molecule, the Activity [26] was “Toxic”, the Activity [27] was “Toxic” and the Activity [28] was “Toxic”. For the same molecule, the inhibition in vivo at 362 µmol/kg (Mus musculus [13]) was 21.2%, the Activity [29] was “Toxic” and the Activity [30] was “Toxic”. For the same molecule, the Activity [31] was “Toxic”, the Activity [32] was “Toxic” and the Activity [33] was “Toxic”. For the same molecule, the Activity [34] was “Toxic”, the Activity [35] was “Non-Toxic” and the Activity [36] was “Toxic”. For the same molecule, the Activity [37] was “Toxic” and the Activity [38] was “Toxic”.
